Laboratory results as given in ChEMBL document CHEMBL1201862, “PubChem BioAssay data set” (2004).
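Cells were grown in 96-well plates and exposed to each compound for 48 hours at five concentrations; endpoints were interpolated linearly between bracketing concentrations, or set to the highest concentration if not reached. At the GI50, growth is halved.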 The source made the active and inactive calls. Cut-off read from the data, not from the text of the source: active = GI50 up to about 1.1 µM and inactive = higher. Non-standard residues stand in square brackets, D forms with d. Residues, ends and D or L forms follow the SMILES beside them. ξ: configuration not given here. *: point of attachment. ξNMeF = CNC(Cc1ccccc1)C(=O)O; NMeV = CN[C@H](C(=O)O)C(C)C; Boc = CC(C)(C)OC(=O)*; OBn = c1ccc(CO*)cc1

Legend:
Experiment in all cases: NCI-60 cell line screen, 48 h
[1] = system: 786-0
[2] = system: TK-10
[3] = system: OVCAR-8
[4] = system: SF-295
[5] = system: SNB-75
[6] = system: HCT-15
[7] = system: SK-OV-3
[8] = system: HOP-62
[9] = system: IGROV-1
[10] = system: COLO 205
[11] = system: SK-MEL-2
[12] = system: SR
[13] = system: KM12
[14] = system: OVCAR-5
[15] = system: LOX IMVI
[16] = system: M14
[17] = system: PC-3
[18] = system: MDA-MB-231
[19] = system: ACHN
[20] = system: MCF7

| Structure (SMILES) | GI50 [1] | GI50 [2] | GI50 [3] | GI50 [4] | GI50 [5] | GI50 [6] [µM] | GI50 [7] | GI50 [8] | GI50 [9] | GI50 [10] | GI50 [11] | GI50 [12] | GI50 [13] | GI50 [14] | GI50 [15] | GI50 [16] | GI50 [17] | GI50 [18] | GI50 [19] | GI50 [20] |
| --- | --- | --- | --- | --- | --- | --- | --- | --- | --- | --- | --- | --- | --- | --- | --- | --- | --- | --- | --- | --- |
| CC(C)[C@@H](C(=O)N(C)[C@H](C(=O)N1CCC[C@H]1C(=O)OCc1ccccc1)C(C)C)N(C)C(=O)C(Cc1ccccc1)N(C)C(=O)[C@H](NC(=O)OC(C)(C)C)C(C)C (stereo partly drawn) (Boc-[dV][ξNMeF][NMeV][NMeV]P-OBn) | > 46.8 µM (inactive) | > 31.6 µM (inactive) | > 31.6 µM (inactive) | 26.5 µM (inactive) | 14 µM (inactive) | > 31.6 | > 31.6 µM (inactive) | > 31.6 µM (inactive) | > 31.6 µM (inactive) | > 82.6 µM (inactive) | > 31.6 µM (inactive) | 19.7 µM (inactive) | > 10 µM (inactive) | > 31.6 µM (inactive) | > 31.6 µM (inactive) |  |  |  |  |  |
| NN(CC(=O)O)CC(=O)O | > 100 µM (inactive) | > 100 µM (inactive) | > 100 µM (inactive) | > 100 µM (inactive) |  | > 100 | > 100 µM (inactive) | > 100 µM (inactive) | > 100 µM (inactive) | > 100 µM (inactive) | > 100 µM (inactive) |  | > 100 µM (inactive) | > 100 µM (inactive) | > 100 µM (inactive) | > 100 µM (inactive) | > 100 µM (inactive) | > 100 µM (inactive) | > 100 µM (inactive) | > 100 µM (inactive) |
| CC(=O)C(=N\Nc1ccc(Cl)cc1)/C(C)=N/c1ccc(C)cc1 | 37.2 µM (inactive) | 33.5 µM (inactive) | 35.6 µM (inactive) | 32.4 µM (inactive) | 44 µM (inactive) | 45.6 | 46 µM (inactive) | > 10 µM (inactive) | 32.7 µM (inactive) | 21.3 µM (inactive) | 18.4 µM (inactive) | > 100 µM (inactive) | 27.1 µM (inactive) | 34 µM (inactive) | 45 µM (inactive) | 22.1 µM (inactive) | 28.6 µM (inactive) | 37.5 µM (inactive) | 21.9 µM (inactive) |  |
| COP1(=O)Oc2ccccc2C(=O)C(C(F)(F)F)(C(F)(F)F)O1 (stereo not drawn) | > 100 µM (inactive) | > 100 µM (inactive) | > 100 µM (inactive) | > 100 µM (inactive) | > 100 µM (inactive) | > 100 | > 100 µM (inactive) | > 100 µM (inactive) | > 100 µM (inactive) | > 100 µM (inactive) | > 100 µM (inactive) | > 100 µM (inactive) | > 100 µM (inactive) | > 100 µM (inactive) | > 100 µM (inactive) | > 100 µM (inactive) |  |  | > 100 µM (inactive) |  |
| COP(=O)(OC)C(=O)N1N(c2ccc([N+](=O)[O-])cc2)C(=O)C(C)NC1(NNc1ccc([N+](=O)[O-])cc1)P(=O)(OC)OC (stereo not drawn) | > 100 µM (inactive) | > 100 µM (inactive) | > 100 µM (inactive) |  | > 100 µM (inactive) | > 100 |  | > 100 µM (inactive) | > 100 µM (inactive) | > 100 µM (inactive) | > 100 µM (inactive) | > 100 µM (inactive) | > 100 µM (inactive) | > 100 µM (inactive) | > 100 µM (inactive) | > 100 µM (inactive) |  |  | > 100 µM (inactive) |  |
| COC(=O)C[C@](O)(CCC(C)(C)O)C(=O)O[C@@H]1C(OC)=C[C@]23CCCN2CCc2cc4c(cc2[C@H]13)OCO4 [HARRINGTONINE] |  |  | 0.16 µM (active) | 0.186 µM (active) | 0.209 µM (active) | 0.379 | 0.0984 µM (active) | 0.166 µM (active) | 0.0505 µM (active) | 0.0977 µM (active) | 0.0989 µM (active) |  | 0.0693 µM (active) | 0.233 µM (active) | 0.047 µM (active) |  |  |  |  | 0.0288 µM (active) |
| COc1ccc(OC)c2c(C)ccnc12 | 22.3 µM (inactive) | 81.7 µM (inactive) | 14.9 µM (inactive) | 16.5 µM (inactive) | 33.1 µM (inactive) | 4.25 | > 86.1 µM (inactive) | 9.75 µM (inactive) | 10.7 µM (inactive) | 39.5 µM (inactive) | 22.8 µM (inactive) |  | 37.2 µM (inactive) | 46.1 µM (inactive) | 5.28 µM (inactive) | 10.6 µM (inactive) | 20.3 µM (inactive) | 34 µM (inactive) | 18.3 µM (inactive) | 9.04 µM (inactive) |
| COC(=O)C(=O)C(C(=O)C(=O)Nc1ccc(Cl)cc1C)c1nc2ccc(C(=O)c3ccccc3)cc2nc1O (stereo not drawn) | > 100 µM (inactive) | > 100 µM (inactive) | > 100 µM (inactive) | > 100 µM (inactive) | 31.5 µM (inactive) | > 100 | > 100 µM (inactive) | > 100 µM (inactive) | > 100 µM (inactive) | > 100 µM (inactive) | > 100 µM (inactive) | 43.5 µM (inactive) | 63 µM (inactive) | 83 µM (inactive) | > 100 µM (inactive) | > 100 µM (inactive) |  |  | 76.9 µM (inactive) |  |
